inhibition, Stability and Ki data for ten compounds are collected here from ChEMBL document CHEMBL4627308, “Identification of C10 nitrogen-containing aporphines with dopamine D1 versus D5 receptor selectivity” (Bioorg Med Chem Lett, 2020).

T3 sequence (P28223 whole entry): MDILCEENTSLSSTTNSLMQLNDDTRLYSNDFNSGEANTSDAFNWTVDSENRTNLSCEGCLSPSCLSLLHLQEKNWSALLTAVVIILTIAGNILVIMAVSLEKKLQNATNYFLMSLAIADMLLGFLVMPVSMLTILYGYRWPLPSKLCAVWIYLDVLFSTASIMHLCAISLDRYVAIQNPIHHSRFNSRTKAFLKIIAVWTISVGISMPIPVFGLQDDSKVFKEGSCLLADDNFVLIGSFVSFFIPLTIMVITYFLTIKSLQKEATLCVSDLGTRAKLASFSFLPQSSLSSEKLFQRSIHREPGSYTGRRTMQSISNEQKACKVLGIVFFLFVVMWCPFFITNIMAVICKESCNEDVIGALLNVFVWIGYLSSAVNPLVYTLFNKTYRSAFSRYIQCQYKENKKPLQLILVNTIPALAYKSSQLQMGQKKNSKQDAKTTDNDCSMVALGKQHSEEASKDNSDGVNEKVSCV
D(1B) dopamine receptor (Homo sapiens), sequence (P21918 whole entry): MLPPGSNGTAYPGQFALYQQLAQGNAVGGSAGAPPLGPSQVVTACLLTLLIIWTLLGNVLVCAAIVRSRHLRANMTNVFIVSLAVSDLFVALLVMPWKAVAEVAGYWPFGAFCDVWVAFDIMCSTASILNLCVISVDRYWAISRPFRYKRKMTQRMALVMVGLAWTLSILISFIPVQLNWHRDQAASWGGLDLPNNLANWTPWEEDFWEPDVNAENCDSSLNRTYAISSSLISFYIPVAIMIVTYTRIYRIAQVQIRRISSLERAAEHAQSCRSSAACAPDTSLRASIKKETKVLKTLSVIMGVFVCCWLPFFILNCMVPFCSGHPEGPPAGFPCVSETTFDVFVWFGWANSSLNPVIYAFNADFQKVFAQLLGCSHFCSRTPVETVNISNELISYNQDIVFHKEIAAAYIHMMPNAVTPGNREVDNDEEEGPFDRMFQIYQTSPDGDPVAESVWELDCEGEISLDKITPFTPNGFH
T2 sequence (P14416 whole entry): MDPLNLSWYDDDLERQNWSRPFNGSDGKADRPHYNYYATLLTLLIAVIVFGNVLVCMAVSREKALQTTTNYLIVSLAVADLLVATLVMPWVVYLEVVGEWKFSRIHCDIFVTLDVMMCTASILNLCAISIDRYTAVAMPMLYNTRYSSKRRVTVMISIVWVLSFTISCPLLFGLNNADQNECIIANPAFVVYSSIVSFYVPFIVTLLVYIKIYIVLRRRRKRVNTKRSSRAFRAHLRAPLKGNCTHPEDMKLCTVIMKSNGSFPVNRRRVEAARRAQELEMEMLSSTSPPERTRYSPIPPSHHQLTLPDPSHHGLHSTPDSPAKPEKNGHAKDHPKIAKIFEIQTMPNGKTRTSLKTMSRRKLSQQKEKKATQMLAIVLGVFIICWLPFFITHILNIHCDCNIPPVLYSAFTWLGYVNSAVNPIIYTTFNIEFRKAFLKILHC

In one data set the target is T1, D(1A) dopamine receptor (Homo sapiens, UniProt P21728). As to the kind of experiment: Inhibition of human D1 receptor relative to control. The following applies: concentration not given here. Also on record: concentration or dose not given beside the values.
T1 sequence (P21728 whole entry): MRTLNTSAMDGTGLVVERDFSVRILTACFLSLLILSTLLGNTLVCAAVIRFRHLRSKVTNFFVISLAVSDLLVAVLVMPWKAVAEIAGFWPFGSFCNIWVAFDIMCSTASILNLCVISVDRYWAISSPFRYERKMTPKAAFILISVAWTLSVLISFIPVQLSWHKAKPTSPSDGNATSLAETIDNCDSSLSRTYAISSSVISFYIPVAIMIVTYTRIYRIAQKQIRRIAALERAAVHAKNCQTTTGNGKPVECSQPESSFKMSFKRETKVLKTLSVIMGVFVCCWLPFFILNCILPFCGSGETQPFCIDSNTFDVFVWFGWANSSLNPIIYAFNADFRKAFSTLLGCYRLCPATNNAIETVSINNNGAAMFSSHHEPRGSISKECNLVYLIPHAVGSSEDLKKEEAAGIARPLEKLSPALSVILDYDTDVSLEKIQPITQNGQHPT
By inhibition is commonly meant the change of the read-out against control, counted positive when it falls. With `O=[N+]([O-])c1ccc2c(c1)-c1cccc3c1C(C2)NCC3` (stereo not given), the inhibition is under 50%.

For the compound `C=CCOc1c(OC)cc2c3c1-c1cc([N+](=O)[O-])ccc1CC3N(C)CC2` (stereo not given), the inhibition is under 50%.

`CN1CCc2cccc3c2C1Cc1ccc(N)cc1-3` (stereo not given): the inhibition was under 50%.

In turn, `CC(=O)Nc1ccc2c(c1)-c1cccc3c1C(C2)N(C)CC3` (stereo not given) displayed an inhibition of under 50%.

Compound `CCCC(=O)Nc1ccc2c(c1)-c1cccc3c1C(C2)N(C)CC3` (stereo not given) displayed an inhibition of under 50%.

Regarding `COc1cc2c3c(c1OC1CC1)-c1cc([N+](=O)[O-])ccc1CC3N(C)CC2` (stereo not given), the inhibition was under 50%.

Test system in a further data set: not listed separately
The experiment in a line: Microsomal stability in human liver microsomes assessed as parent compound remaining measured after 60 mins. The data set is classed as ADME, Microsome. The following applies: 1 h. (Liver microsomes are vesicles of endoplasmic reticulum, rich in cytochrome P450 enzymes.)
`C#CCOc1c(OC)cc2c3c1-c1cc(NC(C)=O)ccc1CC3N(C)CC2` (stereo not given): the Stability worked out at 95.6%.

For the compound `CC(C)[N+](C)(CCOC(=O)C1c2ccccc2Oc2ccccc21)C(C)C` [PROPANTHELINE], the Stability amounted to 6.4%.

As for `CN1CCc2cccc3c2[C@H]1Cc1ccc(O)c(O)c1-3` [APOMORPHINE], the Stability was determined as 80.43%.

Another data set concerns the target T2, D(2) dopamine receptor (Homo sapiens, UniProt P14416). The experiment in a line: Binding affinity to human D2 receptor.
Details: not given
What is called Ki is the equilibrium dissociation constant of an inhibitor or competing ligand from its target. `COc1cc2c3c(c1OC)-c1cc([N+](=O)[O-])ccc1CC3N(C)CC2` (stereo not given) yielded a Ki of 478 nM.

As for `C#CCOc1c(OC)cc2c3c1-c1cc(NC(C)=O)ccc1CC3N(C)CC2` (stereo not given), affinity was put at a Ki of 854 nM.

The compound `CN1CCc2cccc3c2C1Cc1ccc(N)cc1-3` (stereo not given) yielded a Ki of 679 nM.

The next data set has as its target D(1B) dopamine receptor (Homo sapiens) (UniProt P21918). The experiment in a line: Inhibition of human D5 receptor relative to control. Also on record: concentration or dose not given beside the values. The following applies: concentration not given here.
The compound `COc1cc2c3c(c1OC)-c1cc([N+](=O)[O-])ccc1CC3N(C)CC2` (stereo not given) registered an inhibition of under 50%.

Compound `C#CCOc1c(OC)cc2c3c1-c1cc(NC(C)=O)ccc1CC3N(C)CC2` (stereo not given) returned an inhibition of under 50%.

Take `O=[N+]([O-])c1ccc2c(c1)-c1cccc3c1C(C2)NCC3` (stereo not given): the inhibition is under 50%.

Regarding `C=CCOc1c(OC)cc2c3c1-c1cc([N+](=O)[O-])ccc1CC3N(C)CC2` (stereo not given), the inhibition is under 50%.

Regarding `CN1CCc2cccc3c2C1Cc1ccc(N)cc1-3` (stereo not given), the inhibition was under 50%.

On to `CC(=O)Nc1ccc2c(c1)-c1cccc3c1C(C2)N(C)CC3` (stereo not given), for which the inhibition is under 50%.

As for `CCCC(=O)Nc1ccc2c(c1)-c1cccc3c1C(C2)N(C)CC3` (stereo not given), the inhibition is under 50%.

Take `COc1cc2c3c(c1OC1CC1)-c1cc([N+](=O)[O-])ccc1CC3N(C)CC2` (stereo not given): the inhibition is under 50%.

Test system in a further data set: not listed separately
The experiment in a line: Microsomal stability in human liver microsomes assessed as parent compound remaining measured after 15 mins. The data set is classed as ADME, Microsome. The conditions noted are these: 0.25 h.
For the compound `C#CCOc1c(OC)cc2c3c1-c1cc(NC(C)=O)ccc1CC3N(C)CC2` (stereo not given), the Stability is given as 99.76%.

On to `CC(C)[N+](C)(CCOC(=O)C1c2ccccc2Oc2ccccc21)C(C)C` [PROPANTHELINE], for which the Stability turned out to be 65.33%.

As to `CN1CCc2cccc3c2[C@H]1Cc1ccc(O)c(O)c1-3` [APOMORPHINE], the Stability was determined as 89.33%.

The target in another data set is T1, D(1A) dopamine receptor. The experiment in a line: Binding affinity to human D1 receptor.
Details: not given
`COc1cc2c3c(c1OC)-c1cc([N+](=O)[O-])ccc1CC3N(C)CC2` (stereo not given): the Ki amounted to 726 nM.

For the compound `C#CCOc1c(OC)cc2c3c1-c1cc(NC(C)=O)ccc1CC3N(C)CC2` (stereo not given), the inhibition constant (Ki) worked out at 58 nM.

Test system in a further data set: not listed separately
The experiment in a line: Microsomal stability in human liver microsomes assessed as parent compound remaining measured after 120 mins. The following applies: 2 h. The data set is classed as ADME, Microsome.
`C#CCOc1c(OC)cc2c3c1-c1cc(NC(C)=O)ccc1CC3N(C)CC2` (stereo not given): the Stability is listed as 102.69%.

With `CC(C)[N+](C)(CCOC(=O)C1c2ccccc2Oc2ccccc21)C(C)C` [PROPANTHELINE], the Stability worked out at 0.16%.

Regarding `CN1CCc2cccc3c2[C@H]1Cc1ccc(O)c(O)c1-3` [APOMORPHINE], the Stability is 36.68%.

A further data set addresses T3, 5-hydroxytryptamine receptor 2A (Homo sapiens, UniProt P28223). The experiment in a line: Inhibition of human 5HT2A receptor relative to control. Also on record: concentration or dose not given beside the values. The following applies: concentration not given here.
In the case of `O=[N+]([O-])c1ccc2c(c1)-c1cccc3c1C(C2)NCC3` (stereo not given), the inhibition was under 50%.

For `C=CCOc1c(OC)cc2c3c1-c1cc([N+](=O)[O-])ccc1CC3N(C)CC2` (stereo not given), the inhibition was under 50%.

In turn, `CCCC(=O)Nc1ccc2c(c1)-c1cccc3c1C(C2)N(C)CC3` (stereo not given) returned an inhibition of under 50%.

Take `COc1cc2c3c(c1OC1CC1)-c1cc([N+](=O)[O-])ccc1CC3N(C)CC2` (stereo not given): the inhibition was under 50%.

Test system in a further data set: not listed separately
The experiment in a line: Microsomal stability in human liver microsomes assessed as parent compound remaining measured immediately. The data set is classed as ADME, Microsome.
Details: not given
In the case of `C#CCOc1c(OC)cc2c3c1-c1cc(NC(C)=O)ccc1CC3N(C)CC2` (stereo not given), the Stability is reported as 100%.

With `CC(C)[N+](C)(CCOC(=O)C1c2ccccc2Oc2ccccc21)C(C)C` [PROPANTHELINE], the Stability came to 100%.

For the compound `CN1CCc2cccc3c2[C@H]1Cc1ccc(O)c(O)c1-3` [APOMORPHINE], the Stability came to 100%.

Another data set addresses T2, D(2) dopamine receptor. As to the kind of experiment: Inhibition of human D2 receptor relative to control. Also on record: concentration or dose not given beside the values. The conditions noted are these: concentration not given here.
In turn, `O=[N+]([O-])c1ccc2c(c1)-c1cccc3c1C(C2)NCC3` (stereo not given) gave an inhibition of under 50%.

In the case of `C=CCOc1c(OC)cc2c3c1-c1cc([N+](=O)[O-])ccc1CC3N(C)CC2` (stereo not given), the inhibition is under 50%.

As for `CC(=O)Nc1ccc2c(c1)-c1cccc3c1C(C2)N(C)CC3` (stereo not given), the inhibition was under 50%.

On to `CCCC(=O)Nc1ccc2c(c1)-c1cccc3c1C(C2)N(C)CC3` (stereo not given), for which the inhibition is under 50%.

As to `COc1cc2c3c(c1OC1CC1)-c1cc([N+](=O)[O-])ccc1CC3N(C)CC2` (stereo not given), the inhibition was under 50%.

Test system in a further data set: not listed separately
The experiment in a line: Microsomal stability in human liver microsomes assessed as parent compound remaining measured after 30 mins. The following applies: 0.5 h. The data set is classed as ADME, Microsome.
On to `C#CCOc1c(OC)cc2c3c1-c1cc(NC(C)=O)ccc1CC3N(C)CC2` (stereo not given), for which the Stability turned out to be 97.8%.

As to `CC(C)[N+](C)(CCOC(=O)C1c2ccccc2Oc2ccccc21)C(C)C` [PROPANTHELINE], the Stability stood at 36.32%.

Regarding `CN1CCc2cccc3c2[C@H]1Cc1ccc(O)c(O)c1-3` [APOMORPHINE], the Stability came out at 99.73%.

Another data set has as its target T3, 5-hydroxytryptamine receptor 2A.
Details: not given
`COc1cc2c3c(c1OC)-c1cc([N+](=O)[O-])ccc1CC3N(C)CC2` (stereo not given) gave a Ki of 1350 nM.

The compound `C#CCOc1c(OC)cc2c3c1-c1cc(NC(C)=O)ccc1CC3N(C)CC2` (stereo not given) registered an inhibition constant Ki of 1270 nM.

Compound `CN1CCc2cccc3c2C1Cc1ccc(N)cc1-3` (stereo not given) displayed an inhibition constant Ki of 672 nM.

`CC(=O)Nc1ccc2c(c1)-c1cccc3c1C(C2)N(C)CC3` (stereo not given) yielded a Ki of 1060 nM.

Another data set has as its target T4, 5-hydroxytryptamine receptor 1A (Homo sapiens) (UniProt P08908).
T4 sequence (whole entry): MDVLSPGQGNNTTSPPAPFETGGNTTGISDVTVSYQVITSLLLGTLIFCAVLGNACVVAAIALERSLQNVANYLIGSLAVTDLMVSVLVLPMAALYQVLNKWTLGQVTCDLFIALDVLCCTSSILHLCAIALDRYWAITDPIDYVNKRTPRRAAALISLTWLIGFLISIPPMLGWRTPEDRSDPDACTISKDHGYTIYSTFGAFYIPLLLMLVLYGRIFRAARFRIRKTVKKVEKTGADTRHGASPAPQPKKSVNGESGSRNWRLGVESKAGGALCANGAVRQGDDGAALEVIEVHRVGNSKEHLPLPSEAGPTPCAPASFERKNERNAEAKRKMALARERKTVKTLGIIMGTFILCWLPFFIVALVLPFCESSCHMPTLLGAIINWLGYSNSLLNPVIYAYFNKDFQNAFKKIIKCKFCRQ
As to the kind of experiment: Inhibition of human 5HT1A receptor relative to control. Also on record: concentration or dose not given beside the values. The following applies: concentration not given here.
With `C#CCOc1c(OC)cc2c3c1-c1cc(NC(C)=O)ccc1CC3N(C)CC2` (stereo not given), the inhibition is under 50%.

In the next data set the target is T5, 5-hydroxytryptamine receptor 1A (Homo sapiens, UniProt P08908).
T5 sequence (P08908 whole entry): T4 sequence (whole entry)
The experiment in a line: Binding affinity to human 5HT1A receptor.
Details: not given
In the case of `COc1cc2c3c(c1OC)-c1cc([N+](=O)[O-])ccc1CC3N(C)CC2` (stereo not given), the inhibitory constant (Ki) amounted to 458 nM.

`O=[N+]([O-])c1ccc2c(c1)-c1cccc3c1C(C2)NCC3` (stereo not given) came in with a Ki of 350 nM.

`C=CCOc1c(OC)cc2c3c1-c1cc([N+](=O)[O-])ccc1CC3N(C)CC2` (stereo not given) had a Ki of 1680 nM.

Consider `CN1CCc2cccc3c2C1Cc1ccc(N)cc1-3` (stereo not given), for which the Ki amounted to 269 nM.

Compound `CC(=O)Nc1ccc2c(c1)-c1cccc3c1C(C2)N(C)CC3` (stereo not given) showed an inhibitory constant (Ki) of 93 nM.

Consider `CCCC(=O)Nc1ccc2c(c1)-c1cccc3c1C(C2)N(C)CC3` (stereo not given), for which the Ki was 83 nM.

As for `COc1cc2c3c(c1OC1CC1)-c1cc([N+](=O)[O-])ccc1CC3N(C)CC2` (stereo not given), the Ki was determined as 439 nM.
